# Data taken from US8592374B2, “Neurotrophic peptides” (Research Foundation for Mental Hygiene, Inc., priority 2007, dated 2013).
# Tests used:
# [1] = test system: normal adult mice; assay: Morris Water Maze task, CNTF 6a / CNTF 6c pellets 30 days; type: in vivo
# Procedure: For behavioral studies, performance on the Morris Water Maze task was assessed in three groups of 10 mice each (placebo, CNTF6a and CNTF6c) which received peptide treatment for 30 days. To avoid daily stress due to injections, all animals undergoing behavioral studies received subcutaneous implants of CNTF 6a, CNTF 6c or placebo pellets as described above.
# All animals for behavioral testing were coded such that the experimentator was blind to the assignment of the animals to specific treatment groups. The Morris Water Maze procedure was performed using a 110 cm diameter circular tank. Before training, the mice were handled gently for 2-3 min/day during 3 days to minimize non-specific stress. Acquisition was started with the submerged (invisible) escape platform in the North-East quadrant and each animal was given 60 sec to find the submerged escape platform. […] Five such acquisition trials were given on each day, for four consecutive days. A test for retention, or probe trial, was given 24 hours later. During the probe trial the mouse was allowed to swim in the tank without the escape platform for 60 seconds. This was followed by second and third probe trials 15 and 30 days from the first probe trial. Each probe trial was immediately followed by a “retraining session” consisting of 5 trials/animal to consolidate learned behavior.
# The measures of learning were the time and distance swum to reach the escape platform. For retention during the probe trial, the tank was divided into four imaginary quadrants and a small zone where the escape platform had been (virtual platform). The measures of retention were the percent of time spent and the percent of distance swum in each quadrant, and the number of entries into the platform zone.
# Mouse behavior in the Morris Water Maze was monitored by a Samsung Digital Camera (SDC 4304) mounted to the ceiling and tracked and timed by a SMART (Pan Lab/San Diego Instruments) version 2.0.14 software.
# Since normal adult mice were used as experimental animals, it was crucial not to miss any effect on memory acquisition and learning that the 30-day peptide treatment might have had. Therefore, a partial training paradigm was used to evaluate learning and memory in the Morris Water Maze. Treated mice were trained on the Morris Water Maze for a total of 20 sessions spanning 4 days after which they were subjected to the first probe trial (P1). Two additional probe trials (P2 and P3) were administered 15 and 30 days after P1. […] Learning was evaluated in terms of latency and distance traveled to reach the invisible escape platform. Retention was measured on probe trials by the percent of time and travel distance in the target quadrant, and the number of crossings of the virtual platform.
# [2] = test system: neural progenitor cells of the dentate gyrus; assay: Stereological counts of BrdU-IR cells in subregions of the hippocampus, 30-day pellets; type: in vivo, mice
# Procedure: All in vivo studies for characterization of peptides (stereology and behavioral analysis) were performed on 8-10-month-old female retired breeders of C57Bl6 background. The animals were acclimatized for at least 3 weeks to exclude occasional pregnant mice from the studies. Mice were group-housed (3 animals per cage) with a 12:12 light:dark cycle and with free access to food and water. All procedures were conducted in accordance with approved protocols from our institutional Animal Welfare Committee.
# (§1) To study neurogenesis, mice received subcutaneous implants of extended release depot pellets containing either CNTF peptides 6a or 6c for 30 days of continuous dosing (Innovative Research of America, Sarasota, Fla.). For control groups, the pellets consisted of the carrier biopolymer only. For implantation, the mice were anesthetized with 2.5% Avertin (0.38 ml for a 25 g animal). Under sterile conditions, the pellets were then subcutaneously implanted along the anterolateral aspect of the right shoulder with a precision trochar (Innovative Research of America). The animals were then transferred to the animal colony after recovery from anesthesia. There were no complications associated with the implantation and treatment. BrdU was given as two daily i.p. injections (100 mg/kg/dose) for five days starting on day 2 of peptide treatment. Neurogenesis was assessed in the dentate gyrus (DG) by counting the number of BrdU-immunoreactive (BrdU-IR), BrdU-DCX-IR and BrdU-NeuN-IR cells in various layers of the DG. Employing principles of unbiased stereology, the optical fractionator method was used to estimate cell counts for the DG.
# At the end of treatment, all animals were anesthetized with an overdose of sodium pentobarbital and transcardially perfused with 0.1 M PBS. After perfusion, the brains were removed from the skull, the left hemisphere was immediately frozen for future biochemical analysis and the right hemisphere was fixed in 4% paraformaldehyde in 0.1 M PBS for at least 24 hours at room temperature. Tissues were then stored in 30% sucrose solutions at 4° C. until sectioning. The brains were sectioned sagittaly on a freezing sliding microtome at […] through the entire hippocampus and the sections were stored in glycol anti-freeze solution (Ethylene glycol, glycerol and 0.1 M PBS in 3:3:4 ratio) at −20° C. till further processing.
# (§2) Immunohistochemistry was performed as described elsewhere (Kuhn et al., J. Neurosci 17 (15) (1997): 5820-5829). Briefly, every 5th brain section was chosen for quantification of cell number and every 10th section was chosen for staining intensity scanning. Immunohistochemistry was performed on free floating sections. For BrdU immunohistochemistry, epitope retrieval and staining were performed as previously described (Kuhn et al., J. Neurosci 17 (15) (1997): 5820-5829).
# Neurogenesis was assessed in the DG by counting the number of BrdU-immunoreactive (BrdU-IR), BrdU-DCX-IR and BrdU-NeuN-IR cells in various layers of the DG. The granule cell layer (GCL) was subdivided into an inner and outer half (iGCL and oGCL). The iGCL consisted of the subgranular zone (SGZ, defined as a 2-3 nuclei thick layer bordering the GCL) and the inner half of the GCL adjacent to the Hilus (Hil); the outer GCL (oGCL) was defined as the half of the GCL adjacent to the Molecular layer (Mol). A cell in the middle of the GCL was considered part of the iGCL and a cell bordering the GCL in the Mol was included in oGCL counts. […] Hil included the superficial polymorphic layer.
# All sections were collected using the random uniform sampling scheme. For BrdU-IR cells, counting was performed on every 5th section using 40× oil objective of a Nikon 90i fluorescent microscope equipped with Nikon C1 three laser confocal system and a Nikon DS U1 digital camera. Employing principles of unbiased stereology, the optical fractionator method was used to estimate cell counts for the DG (West et al., Anat Rec 231 (1991): 482-497). […]
# [3] = test system: GCL of the dentate gyrus; assay: MAP2 and synaptophysin expression in the GCL (mean pixel intensity), Example 4; type: in vivo, mice; details: 30-day treatment
# Text: The following primary antibodies were used for immunohistochemistry: anti-BrdU (1:400; Accurate) a rat monoclonal raised against BrdU; anti-DCX (1:200; Santa Cruz Biotechnology Inc.), a goat polyclonal antibody raised against an 18-amino acid peptide representing residues 384-410 of human doublecortin; anti-NeuN (1:500; Chemicon), a mouse monoclonal antibody raised against purified cell nuclei from mouse brain; Anti-c-Fos (Ab-5) (1:500; Calbiochem), a rabbit polyclonal antibody raised against a synthetic peptide corresponding to amino-acids 4-17 of human c-Fos; SMI52 (1:1000; Sternberger Monoclonals), a mouse monoclonal antibody specific for the mature neuronal marker MAP2a,b; anti-synaptophysin, SYN (1:200; Chemicon), a mouse monoclonal antibody raised against vesicular fraction of bovine brain. […]
# For MAP2 and Synaptophysin IR, the entire area of GCL was outlined on every 10th section. Maximum projection images were then generated based on confocal z-stacks, and the antibody staining was quantitated by measuring mean pixel intensity (MPI) with the help of Image-Pro Plus 5.0 software (Media Cybernetics).
# [4] = test system: granule cell layer of the dentate gyrus; assay: Stereological counts of DCX-, BrdU-NeuN- and c-Fos-NeuN-IR cells in the granule cell layer; type: in vivo, mice
# Procedure: as §1
# The following primary antibodies were used for immunohistochemistry: anti-BrdU (1:400; Accurate) a rat monoclonal raised against BrdU; anti-DCX (1:200; Santa Cruz Biotechnology Inc.), a goat polyclonal antibody raised against an 18-amino acid peptide representing residues […] of human doublecortin; anti-NeuN (1:500; Chemicon), a mouse monoclonal antibody raised against purified cell nuclei from mouse brain; Anti-c-Fos (Ab-5) (1:500; Calbiochem), a rabbit polyclonal antibody raised against a synthetic peptide corresponding to amino-acids 4-17 of human c-Fos; SMI52 (1:1000; Sternberger Monoclonals), a mouse monoclonal antibody specific for the mature neuronal marker MAP2a,b; anti-synaptophysin, SYN (1:200; Chemicon), a mouse monoclonal antibody raised against vesicular fraction of bovine brain. The following secondary antibodies were used: Alexa 488-conjugated goat anti-mouse IgG antibody and Alexa 594-conjugated goat anti-rabbit or anti-rat IgG antibody (Molecular Probes); biotinylated anti-rat IgG antibody and Cy5-conjugated goat anti-mouse antibody (Jackson ImmunoResearch).
# as §2
# For BrdU-DCX-, BrdU-NeuN-, and c-Fos-NeuN-IR cells, only GCL (consisting of iGCL and oGLC described above) was counted using 100× oil objective in every 10th section. To ensure objectivity, z-stacks were collected for each double IR cell and analyzed later by generating maximum projection and 3D constructs.
# [5] = 30-day pellets, 50 nmol/peptide/animal/day
# [6] = 30-day treated mice (n = 5/group)
substance,measurement,setting,value
Ac-DGGL-NH2 [CNTF 6c],learning in the spatial reference memory task (swim latencies),"[1]; 30-day pellets, 20 training sessions over 4 days",no effect
same,percent time spent in the target quadrant across three probe trials,"[1]; P1, P2, P3",spent the same percent amount of time in the target quadrant
same,"BrdU-IR cells in oGCL, Mol or Hil compared to control",[2]; 30-day pellets,no significant differences
same,increase of BrdU-IR cell counts in the GCL compared to placebo,[2]; [5],31%
same,increase of number of BrdU-IR cells in the iGCL compared to control,[2]; [5],45%
same,"Stereological counts (±SEM) of BrdU-IR cells, GCL",[2]; [6],560 ± 24
same,"Stereological counts (±SEM) of BrdU-IR cells, Hil",[2]; [6],121 ± 16
same,"Stereological counts (±SEM) of BrdU-IR cells, Mol",[2]; [6],487 ± 28
same,"Stereological counts (±SEM) of BrdU-IR cells, iGCL",[2]; [6],486 ± 31
same,"Stereological counts (±SEM) of BrdU-IR cells, oGCL",[2]; [6],74 ± 10
same,increase of MAP2 expression in the GCL (mean-pixel intensity),[3],31%
same,increase of synaptophysin expression in the GCL (mean-pixel intensity),[3],26%
same,Stereological counts (±SEM) of cells expressing DCX in the granule cell layer,[4]; [6],656 ± 43
same,"Stereological counts (±SEM), NeuN-BrdU/BrdU in the granule cell layer",[4]; [6],39 ± 2
same,Stereological counts (±SEM) of c-fos-NeuN cells in the granule cell layer,"[4]; 30-day treated mice (n = 5/group), basal activity",247 ± 23
same,increase in BrdU-NeuN-IR cells in the GCL compared with placebo,[4]; 30-day treatment,62%
same,increase of DCX-IR cells in the GCL compared to placebo,[4]; 30-day treatment,~91%
same,increase in number of mature neurons (NeuN-IR) co-expressing c-fos in the GCL,"[4]; 30-day treatment, without behavioral stimulation",~47%
